According to patent US11104883B2, “SC-beta cells and compositions and methods for generating the same” (President and Fellows of Harvard College, priority 2013, dated 2021):

Columns and labels:
SC-β cells [1] = assay: Anti-diabetic drug treatment of plated SC-β cells, secreted human insulin ELISA; assay type: cell-based; details: 2 and 20 mM glucose
Description: FIG. 16A is a schematic illustration of the utility of SC-β cells for treating diabetes or screening drugs to improve function or replication. FIG. 16B is a table listing diabetic drugs investigated and their general therapeutic category. FIG. 16C is a graph showing ELISA measurements of secreted human insulin from plated SC-β cells treated with the indicated drugs in 2 and 20 mM glucose. Indicated p values compare the insulin value in 20 mM glucose between the drug and the control. FIG. 16D is an immunofluorescence image of dispersed and plated SC-β cells stained with DAPI (blue), C-peptide (green), and Ki67 (red) without treatment. FIG. 16E is an immunofluorescence image of dispersed and plated SC-β cells stained with DAPI (blue), C-peptide (green), and Ki67 (red) treated with prolactin for 48 hours. […] FIG. 16G is a graph illustrating fasting blood glucose measurements of Akita mice transplanted with SC-β cells (n=6) or PH cells (n=6). *p<0.05 comparing the two cell groups on the same day. FIG. 16H is a graph illustrating blood glucose measurements from progressively diabetic Akita mice transplanted with SC-β cells or PH cells. Measurements were taken before (white bars) and 20 min after (black bars) a glucose injection of mice transplanted 2 weeks prior. Glucose measurements were saturated at 550 mg/dL. *p<0.05 comparing the two cell groups at the same time post glucose injection. FIG. 16I is a graph showing ELISA measurements of human insulin from the serum of Akita mice 20 min after a glucose injection. Mice were challenged with glucose 2 weeks post transplantation. *p<0.05 comparing the two cell groups. Scale bar-50 μm.
The inventors first tested whether SC-β cells could respond to existing anti-diabetic drugs from several different classes (FIG. 16B). LY2608204 is glucokinase activator in clinical trials while liraglutide, tolbutamide, and nateglinide are examples of GLP-1 agonists and secretagogues (sulfonylureas and meglitinides), respectively, that have been used clinically (Matschinsky, 2009; Modi, 2007; Vetere et al., 2014).

SC-β cells [2] = assay: GSIS of SC-β cells after additional factors in the last-step (Stage 6) media; assay type: cell-based, human; details: factor added to CMRL media containing Alk5 inhibitor and T3 hormone; versus CMRL only, CMRL+Alk5i+T3, S3+Alk5i+T3
Text: To induce the in vitro maturation of at least some of the Pdx1-positive, NKX6-1-positive, insulin-positive endocrine cells into SC-β cells, the Pdx1-positive, NKX6-1-positive, insulin-positive endocrine cells are maintained in a suitable culture medium for a sufficient period of time. […] Adding additional factors to the CMRL media at the last step of differentiation (Stage 6) (FIG. 14A), however, was also found to generate a better glucose stimulated insulin secretion (GSIS) response by SC-β cells as measured by either stimulation index between high and low glucose challenges or by the amount of insulin released. Such additional factors may include, but are not limited to, Sant1, XXI, and SSP. The stimulation index, as calculated by the ratio of insulin secreted in high glucose (15 mM) to low glucose (2.5 mM), was greater for the SC-β cells maintained in a CMRL media containing Alk5 inhibitor, T3 hormone and either Sant1, XXI or SSP than those SC-β cells maintained in only CMRL media, CMRL media containing Alk5 inhibitor and T3 hormone, or S3 media containing Alk5 inhibitor and T3 hormone (FIG. 14B). Furthermore, the amount of insulin secreted was greater for the SC-β cells maintained in a CMRL media containing Alk5 inhibitor, T3 hormone and either Sant1, XXI or SSP than those SC-β cells maintained in only CMRL media, CMRL media containing Alk5 inhibitor and T3 hormone, or S3 media containing Alk5 inhibitor and T3 hormone (FIG. 14C).
Alternatively, Days 21-35: CMRLS+10 μM Alk5i II+1 μM T3+Sant1.
Alternatively, Days 21-35: CMRLS+10 μM Alk5i II+1 μM T3+XXI.
Alternatively, Days 21-35: CMRLS+10 μM Alk5i II+1 μM T3+SSP.

cells in Steps 3-6 = assay: Modified differentiation protocol (Steps 3-6): cell survival and marker-positive populations; assay type: cell-based, human; details: for cell survival: Steps 3-5
Text: FIG. 15A is a schematic illustration of the protocol.
One challenge for the stem cell field has been generating a sufficient quantity of SC-β cells that can be useful for drug screening, disease modeling, or therapeutic use. For example, hES cells are technically difficult to culture, are vulnerable to apoptosis upon cellular detachment and dissociation, undergo massive cell death particularly after complete dissociation, and have low cloning efficiency. (Watanabe, K. et al., Nature Biotechnology 25, 681-686 (2007)). As a result, the quantity of viable SC-β cells yielded may be low. By modify the protocol between Steps 3 and 6 in the manner shown in FIG. 15A, more pure NKX6.1+ endocrine clusters can be generated (FIG. 15B) leading to more SC-β cells that can be therapeutically useful.
In Steps 3-5, for instance, cell survival can be improved by adding a rho-associated protein kinase inhibitor, or a Rock inhibitor. It is believed that the addition of a Rock inhibitor enhances survival of ES cells by preventing dissociation-induced apoptosis thus increasing their cloning efficiency. (Watanabe et al.) Examples of Rock inhibitors include, but are not limited to, Y-27632, Fasudil/HA1077, and H-1152.
In addition to treating the cells with a Rocki inhibitor, the cells in Steps 3-4 can be treated with ActivinA alone or in combination with Nicotinamide. […] Since SOX2 and NKX6-1 are mutually exclusive (FIG. 15E), down-regulation of SOX2 results in the up-regulation of NKX6-1, a marker for a mature pancreatic cell.
In Steps 5-6, cell survival can further be enhanced by treating cells with staurosporine. Staurosporine is known to be an activator of neuronal, glial, and stem cell-like neurosphere differentiation and is also thought to induce apoptosis. (Schumacher, et al., Mol. Cell. Neurosci. 2003; 23(4): 669-680).
Finally, cell survival can further be enhanced by treating cells with a culture medium containing Alk5i, T3 in combination with XXI, a γ-secretase inhibitor that improves β cell maturation.

SC-β cells [3] = assay: β cell replication: C-peptide and Ki67 staining of plated SC-β cells; assay type: cell-based, human; details: SC-β cells treated with prolactin for 48 hours
Description: FIG. 16A is a schematic illustration of the utility of SC-β cells for treating diabetes or screening drugs to improve function or replication. FIG. 16B is a table listing diabetic drugs investigated and their general therapeutic category. FIG. 16C is a graph showing ELISA measurements of secreted human insulin from plated SC-β cells treated with the indicated drugs in 2 and 20 mM glucose. Indicated p values compare the insulin value in 20 mM glucose between the drug and the control. FIG. 16D is an immunofluorescence image of dispersed and plated SC-β cells stained with DAPI (blue), C-peptide (green), and Ki67 (red) without treatment. FIG. 16E is an immunofluorescence image of dispersed and plated SC-β cells stained with DAPI (blue), C-peptide (green), and Ki67 (red) treated with prolactin for 48 hours. […] FIG. 16G is a graph illustrating fasting blood glucose measurements of Akita mice transplanted with SC-β cells (n=6) or PH cells (n=6). *p<0.05 comparing the two cell groups on the same day. […]
Cells were dispersed and plated onto 96 well plates. […] The percentage of target cell-types was quantified using the Array Scan Cellomics high-content screening system. Here 30 images were acquired per well and quantified. Cells labeled by antibody staining and total cell number (based on DAPI nuclei staining) were quantified to obtain percentages of target cell types.

In the case of CC(C)[C@H]1CC[C@H](C(=O)N[C@H](Cc2ccccc2)C(=O)O)CC1 [nateglinide], the “insulin secretion in vitro following a glucose challenge” value (“insulin secretion” below) (SC-β cells [1]) is reported as “increasing insulin secretion”.

CCCCNC(=O)NS(=O)(=O)c1ccc(C)cc1 [tolbutamide] was tested, and the “insulin secretion” value (SC-β cells [1]) was “increasing insulin secretion”.

In the case of Cc1nn(-c2ccccc2)c(C)c1/C=N/N1CCN(Cc2ccccc2)CC1 [Sant1], the “amount of insulin secreted” value (SC-β cells [2]) is reported as “greater” and the “stimulation index, ratio of insulin secreted in high glucose (15 mM) to low glucose (2.5 mM)” value (SC-β cells [2]) is reported as “greater”.

For CN[C@@H]1C[C@H]2O[C@@](C)([C@@H]1OC)n1c3ccccc3c3c4c(c5c6ccccc6n2c5c31)C(=O)NC4 [staurosporine], the “percentage of ChromograninA” value (cells in Steps 3-6; Steps 5-6) was “increasing the percentage of ChromograninA” and the “percentage of NKX6-1/C-peptide+ cells” value (cells in Steps 3-6; Steps 5-6) was “increasing the percentage of NKX6-1.C-peptide+ cells”.

For C[C@H](NC(=O)Cc1cc(F)cc(F)c1)C(=O)N[C@H]1N=C(c2ccccc2)c2ccccc2N(C)C1=O [XXI], the “NeuroD1+ population” value (cells in Steps 3-6; added to medium with Alk5i and T3 at Steps 5 and 6) was “increase the NeuroD1+ population”, the “amount of insulin secreted” value (SC-β cells [2]) was “greater” and the “stimulation index, ratio of insulin secreted in high glucose (15 mM) to low glucose (2.5 mM)” value (SC-β cells [2]) was “greater”.

For NC(=O)c1cccnc1 [Nicotinamide], the cell survival (cells in Steps 3-6) was “improve cell survival”.

For O=C(Nc1ncc(SCCN2CCCC2)s1)[C@]1(c2ccc(S(=O)(=O)C3CC3)cc2)C[C@H]1C1CCCCC1 [LY2608204], the “insulin secretion” value (SC-β cells [1]) was “increasing insulin secretion”.

B1: Activin A: growth factor from the TGF-β superfamily (protein, UniProt P08476 311-426, looked up)
Inhibin beta A chain: GLECDGKVNICCKKQFFVSFKDIGWNDWIIAPSGYHANYCEGECPSHIAGTSGSSLSFHSTVINHYRMRGHSPFANLKSCCVPTKLRPMSMLYYDDGQNIIKKDIQNMIVEECGCS
modifications: Inhibin beta A chain
notes: growth factor from the TGF-β superfamily
With B1 the cell survival (cells in Steps 3-6) was “improve cell survival”.

B2: prolactin: hormone tested for β cell replication (protein, UniProt P01236 29-227, looked up)
Prolactin: LPICPGGAARCQVTLRDLFDRAVVLSHYIHNLSSEMFSEFDKRYTHGRGFITKAINSCHTSSLATPEDKEQAQQMNQKDFLSLIVSILRSWNEPLYHLVTEVRGMQEAPEAILSKAVEIEEQTKRLLEGMELIVSQVHPETKENEIYPVWSGLPSLQMADEESRLSAYYNLLHCLRRDSHKIDNYLKLLKCRIIHNNNC
B2 was tested, and the “Ki67+/C-peptide+ cells” value (SC-β cells [3]) was 0.39±0.08%.
